Test results from PMC9783881, “Synthesis and Preclinical Evaluation of Small-Molecule Prostate-Specific Membrane Antigen-Targeted Abiraterone Conjugate” (Molecules, 2022).
Like-named read-outs stand apart in the source and are kept apart here.

Tests used:
PSMA = test system: PSMA; design: method as in PMID 33822606; settings: PSMA ligand; cited from earlier work
22Rv1 cells = assay: Cell cycle analysis; format: cell-based, human
Protocol: Cell cycle was analyzed in 22Rv1 cells fixed in 70% ethanol with Muse® cell cycle kit. The fixation lasted overnight at −20 °C. Then, cells were collected by centrifugation at 4000 rpm for 10 min and washed with PBS. The cells were resuspended with Muse® Cell Cycle reagent and incubated for 30 min at room temperature in the dark; then, they were counted.

[1] = test system: 22Rv1 prostate cancer subcutaneous xenograft; assay: 22Rv1 human tumor xenograft mouse model; format: in vivo, Balb/c nude mice; settings: 22Rv1 xenografts
Protocol: Male, 6–8 week old Balb/c nude mice with body weight range of 20–22 g were purchased from N.N.Blokhin Cancer Research Center. Animals were kept in plastic cages equipped with lids with feeding recesses, air filters, and feed dividers at 2–3 mice per cage.
Mice were injected subcutaneously in the right and left flanks with 1 × 10^7 22Rv1 cells in RPMI-1640 medium 0.2 mL supplemented with 0.2 mL Corning Matrigel® matrix (Corning, NY, USA) in a total volume of 400 μL. When the average size of the tumors reached ~100 mm^3, mice were randomly divided into three groups, with five mice per group, including a vehicle group (1% starch paste) and two treatment groups: PSMA-Abi 500 mg/kg/day and AbiAc 200 mg/kg/day for 14 days. The drugs were administered orally, and all compounds were formulated with 1% starch paste. Following the treatment, the primary tumor size was measured twice weekly with a micro-caliper, and the tumor volume was calculated using the formula: Volume = π/6 × length × width × height. Treatment outcome was based on percentage of tumor growth inhibition (%TGI), defined as the percent difference between the median tumor volumes (MTVs) of mice in the treated and control groups. Percent TGI was calculated using the following formula: %TGI = [1 − (MTV treatment group/MTV control)] 100%. All data are presented as means ± SD. Statistical analyses of in vivo research were performed using SPSS Statistics V. 22.0, comparing continuous variables by non-parametrical Mann–Whitney U. * p ≤ 0.05 was considered as significant in comparison with the control.

PC-3 [2] = assay: Single cell ROS measurement with Pt-nanoelectrodes, PC-3; format: cell-based, human; settings: PC-3, 1 h incubation, IC50 concentration
Protocol: (§1) Commercially available, disk-shaped carbon nanoelectrodes isolated in quartz (ICAPPIC Limited, London, UK) with diameters of 60–100 nm were used to prepare Pt nanoelectrodes for the amperometric detection of intracellular ROS level. Preparation of Pt-nanoelectrodes has been described in detail previously.
(§2) Briefly, a disk-shaped carbon nanoelectrode was etched in a 0.1 M NaOH, 10 mM KCl solution for 20–40 cycles of 10 seconds (from 0 to +2200 mV) to create nanocavities. Electrochemical deposition of platinum in nanocavities was achieved by cycling from 0 to −800 mV with a scan rate of 200 mV s^−1 for 8 to 10 cycles in 2 mM H2PtCl6 solution in 0.1 M hydrochloric acid. […]
(§3) The setup for amperometric measurements included a PC that was connected to a system consisting of an ADC–DAC converter Axon Digidata 1550B (Axon Instruments, Burlingame, CA, USA) and patch-clamp amplifier MultiClamp 700B (Axon Instruments, USA). […] The potential difference between the Pt-nanoelectrode and the reference electrode was recorded with the pClamp 11 software suite (Molecular Devices, Silicon Valley, CA, USA) and processed with Origin 2018 software.
(§4) PC-3 (2.0 × 10^5)/22Rv1 (3.5 × 10^5) cells were seeded in 35 mm Petri dishes, incubated under the conditions described above, and then treated for 24 h. […] Untreated cells were used as a control, which was evaluated at the beginning and at the end of the experiment. […]

[3] = mouse, in vivo; cited from earlier work
[4] = Cytotoxicity on human adult dermal fibroblasts, MTT-test; format: cell-based; settings: human, human adult dermal fibroblasts (HDFa); HDFa, 72 h, MTT
Protocol: Human adult dermal fibroblasts (HDFa). (ATCC) were propagated in DMEM medium (Paneco) supplemented with 10% fetal calf serum (Gibco) and 1% pemicillin/streptomycin in a 5% CO2 atmosphere at 37 °C. Cytotoxicity of PSMA-Abi and AbiAc in fibroblasts were studied using MTT-test. The cells in the exponential growth phase were trypsinized, counted, and seeded at a density of 5000 cells/well in 96-well plate. Cells were incubated with both tested agents at the designated concentrations (0.4–100 μM) for 72 h; then, each well was treated with 20 μL MTT solution in PBS (5 mg/mL) and cells were incubated at least for 3 h, and formazan was dissolved in DMSO. The absorbance was measured at […] and 620 nm using Thermofischer Scientific Multiscan FC. The values for each point were calculated from 6 wells.

22Rv1 [5] = assay: Single cell ROS measurement with Pt-nanoelectrodes, 22Rv1; format: cell-based, human; settings: 22Rv1, 1 h incubation, IC50 concentration
Protocol: as §1, §2, §3, §4

22Rv1 [6] = assay: Cytotoxicity (CC50) on 22Rv1 cells; format: cell-based; settings: Homo sapiens, 22Rv1, read-out: CC50, 22Rv1
Protocol: The in vitro efficacy study of the PSMA-Abi conjugate included an assessment of its cytotoxic potential towards prostate cancer cell cultures (Table 1). […] Thus, we observed an increase in the efficacy of the conjugate towards the PSMA-expressing line. Additionally, an evaluation in a non-tumor model was performed. The toxicity of both compounds was evaluated on human adult dermal fibroblasts (HDFa); both of the agents in the tested concentrations (0.4–100 µM) were non-toxic for human fibroblasts.
22Rv1 and PC-3 cells were received from the MISIS collection of cell lines (less than ten passages from ATCC stock). All cells were cultured in humidified 37 °C incubators with 5% CO2. All cell lines were tested for the absence of mycoplasma. 22Rv1, androgen-responsive PSMA-positive human prostate carcinoma cells, were cultured in RPMI 1640 media (Gibco) with 10% FBS (Gibco), 1× GlutaMax (Gibco), and 1× Penicillin-Streptomycin (10,000 U/mL, Gibco). PC-3, PSMA-negative human prostate cancer cells, were cultured in DMEM/F12 media (Gibco) with 10% FBS (Gibco), 1× GlutaMax (Gibco), and 1× Penicillin-Streptomycin (10,000 U/mL, Gibco).

PC-3 [7] = test system: PC-3; design: method as in PMID 29310026; settings: PC-3 cell line; cited from earlier work
PSA level = test system: PSA level; design: method as in PMID 22995653; settings: cited from earlier work
[8] = oral x14, PSMA-Abi 500, AbiAc 200 mg/kg/day

CC(=O)O[C@H]1CC[C@@]2(C)C(=CC[C@@H]3[C@@H]2CC[C@]2(C)C(c4cccnc4)=CC[C@@H]32)C1 [AbiAc, abiraterone acetate, reference compound]
S cells (22Rv1 cells; 22Rv1): unaffected | level of G0/G1 cells (22Rv1 cells; 22Rv1, with increasing concentration): increased | percentage of 22Rv1 cells in the G2/M phase (22Rv1 cells; with increasing concentration, compared to control cells): decreased | TGImax (tumor growth inhibition) ([1]; oral x14, PSMA-Abi 500 mg/kg/day, AbiAc 200 mg/kg/day, after the end of treatment): 78% | TGI, day 15 after start of the treatment [1, 8]: 78% | TGI, day 18 after start of the treatment [1, 8]: 72% | TGI, day 22 after start of the treatment [1, 8]: 69% | Tumor volume (M+SE), day 15 [1, 8]: 547±64 mm3 | Tumor volume (M+SE), day 18 [1, 8]: 811±72 mm3 | Tumor volume (M+SE), day 22 [1, 8]: 997±110 mm3 | Tumor volume (M+SE), day 0 ([1]; start of treatment): 91±20 mm3 | ROS (hydrogen peroxide) level in single cells (PC-3 [2]): significantly increased compared to the control | LD50 [3]: 800 mg/kg | CC50 at 72 h [4]: > 100 µM | ROS (hydrogen peroxide) level in single cells (22Rv1 [5]): significantly increased compared to the control | CC50 (22Rv1 [6]): 22.7 ± 3.3 µM | CC50 (PC-3 [7]): 5.9 ± 0.8 µM

[N-]=[N+]=NCCCNC(=O)[C@H](Cc1ccc(O)cc1)NC(=O)[C@H](Cc1ccccc1)NC(=O)CCC(=O)NCCCCCC(=O)N(CCCC[C@H](NC(=O)N[C@@H](CCC(=O)O)C(=O)O)C(=O)O)Cc1cccc(Cl)c1 [PSMA ligand 1]
IC50 (PSMA): 0.009 ± 0.003 µM

C[C@]12CC[C@H](O)CC1=CC[C@@H]1[C@@H]2CC[C@]2(C)C(c3cccnc3)=CC[C@@H]12 [abiraterone]
patients with PSA level decreased by more than 90% (PSA level; chemotherapy-naïve patients): 40% | patients with PSA level decreased by more than 50% (PSA level; patients after ketoconazole therapy): 33% | patients with PSA level decreased by more than 50% (PSA level; patients who had not previously received chemotherapy): 85%
